From US10301291B2, “Imidazole derivative having JNK inhibitory activity and use thereof” (SAMJIN PHARMACEUTICAL CO., LTD., priority 2016, dated 2019) come the findings set out here.

The structures appear in SMILES notation.

One may read the IC50 as the concentration at which inhibition is half-maximal. A higher IC50 goes with lower potency.

Assay type in all cases: biochemical
The target of assay [1] is JNK3 (Homo sapiens (Human), UniProt P53779). Description: Measurement of JNK3 enzyme activity (33P-ATP filter-binding). The following applies: human JNK3, ATP 10 μM, ATF2 3 μM. As to the method: The changes in JNK3 enzyme activity resulting from being treated with the inventive imidazole derivative (Formula 1) shown in a following Table 1 were identified through IC50.
First of all, after a substrate was inserted into a prepared base reaction buffer solution (20 mM Hepes ([…]), 10 mM MgCl2, 1 mM EGTA, 0.02% Brij35, 0.02 mg/ml BSA, 0.1 mM Na3VO4, 2 mM DTT, 1% DMSO), a human JNK3 enzyme was added into a prepared substrate solution and then mixed together. As the substrate, ATP (10 μM) and ATF2 (3 μM) were used, among which the ATP was also used as a common substrate. Then, compounds of Examples 1-18 and 25-36, which were dissolved in 100% DMSO, were inserted into an enzyme reaction solution, and then cultured at room temperature for 20 minutes. Then, ^33P-ATP was inserted into the above reaction mixture solution to initiate a reaction, then cultured at room temperature for 2 hours, and then an enzyme activity was detected by means of a filter-binding method.
Particularly, after each 25 μl of the resulting solution was slowly spotted on P81 paper, it was inserted into a scintillation vial, and washed with 0.75% phosphoric acid four times for 10 minutes each, and with acetone once for 5 minutes. 5 ml of scintillation cocktail was inserted into the above scintillation vial and a resulting signal was read by means of a scintillation counter.
IC50 values of compounds of Examples 1-18 and 25-36 with regard to JNK3 enzyme activity were shown in a following Table 2.

Assay [2] concerns various protein kinases. The experiment in a line: Inhibitory activity against various protein kinases (selectivity, whole panel). Conditions: kinase panel, compound 10 μM. As to the method:
(§1) An inhibitory activity of the compound (10 μM) of Example 34 against various protein kinases was measured by means of a kinase profiling service (ICso profiler express) of Reaction Biology Corp., wherein ICso, a concentration at which JNK enzyme activity was inhibited 50%, was also measured by sequentially reducing a concentration of the compound.
IC50 values of the compound of Example 34 with regard to various protein kinases were shown in a following Table 3.

The target in assay [3] is FYN (Homo sapiens (Human), UniProt P06241). The experiment in a line: Kinase profiling service (Reaction Biology Corp.). Conditions: compound 10 μM. As to the method:
as §1

Sequence of FYN (P06241 whole entry): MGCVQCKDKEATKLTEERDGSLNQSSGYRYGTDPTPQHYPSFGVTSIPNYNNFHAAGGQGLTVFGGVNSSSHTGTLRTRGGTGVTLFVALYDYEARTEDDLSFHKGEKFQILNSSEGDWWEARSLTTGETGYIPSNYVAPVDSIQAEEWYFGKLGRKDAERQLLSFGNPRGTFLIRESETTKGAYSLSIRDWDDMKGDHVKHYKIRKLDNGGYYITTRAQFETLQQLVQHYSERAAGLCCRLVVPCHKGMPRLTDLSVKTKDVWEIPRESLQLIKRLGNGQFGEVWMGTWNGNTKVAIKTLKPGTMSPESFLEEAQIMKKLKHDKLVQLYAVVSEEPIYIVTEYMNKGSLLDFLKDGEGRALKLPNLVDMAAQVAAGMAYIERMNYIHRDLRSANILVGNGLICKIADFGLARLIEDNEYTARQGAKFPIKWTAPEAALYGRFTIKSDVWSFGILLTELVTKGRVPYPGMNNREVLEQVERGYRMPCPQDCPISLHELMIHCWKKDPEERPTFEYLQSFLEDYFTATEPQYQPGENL
Sequence of JNK3 (P53779 whole entry): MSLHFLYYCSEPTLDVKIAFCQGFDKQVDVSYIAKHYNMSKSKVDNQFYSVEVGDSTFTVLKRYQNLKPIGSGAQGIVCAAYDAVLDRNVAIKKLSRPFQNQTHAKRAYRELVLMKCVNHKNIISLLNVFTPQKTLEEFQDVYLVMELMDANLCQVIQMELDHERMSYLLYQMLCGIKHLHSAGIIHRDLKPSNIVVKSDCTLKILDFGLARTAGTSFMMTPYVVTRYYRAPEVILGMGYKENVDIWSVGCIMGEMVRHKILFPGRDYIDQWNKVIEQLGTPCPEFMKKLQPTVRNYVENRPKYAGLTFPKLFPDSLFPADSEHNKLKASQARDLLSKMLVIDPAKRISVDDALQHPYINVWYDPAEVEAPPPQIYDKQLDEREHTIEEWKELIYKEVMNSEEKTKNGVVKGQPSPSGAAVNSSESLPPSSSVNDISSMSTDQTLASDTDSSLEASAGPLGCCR

Regarding `N#CCc1cnc(-c2ccc3ccccc3c2)n1-c1ccnc(NC2CCCN(C(=O)C3CC3)C2)n1` (stereo not shown) [Example 34, 2-(1-(2-(1-(cyclopropanecarbonyl)piperidine-3-ylamino)pyrimidine-4-yl)-2-(naphthalene-2-yl)-1H-imidazole-5-yl)acetonitrile], the concentration for half-maximal inhibition (IC50) in assay [1] is < 30 nM. Moreover, the “selectivity for JNK1/2/3 over other protein kinases (in words)” value in assay [2] is reported as “selectively inhibiting an activity of JNK1/2/3”. Besides, the “% Enzyme Activity (relative to DMSO controls)” value in assay [3] (Data 1 and Data 2) stood at 94.86%. Moreover, in assay [3] (Data 1 and Data 2, read-out: % Enzyme Activity (relative to DMSO controls)), the remaining activity at 10 µM is 95.6%.
